Data as given in patent US20090306052A1, “INDENYL DERIVATIVES AND USE THEREOF FOR THE TREATMENT OF NEUROLOGICAL DISORDERS” (Glaxo Group Limited, priority 2004, published 2009).

Biological target: T1, histamine H3 receptor (Homo sapiens, UniProt Q9Y5N1)
T1 construct: expressed in transfected cells; host or cells: CHO K1 cells carrying the pSwitch regulatory plasmid, transfected with pGeneH3 and induced with mifepristone; clone 3H3; membrane preparation
Experiment: Histamine H3 functional antagonist assay ([35S]-GTPγS SPA, membranes from cultured H3 cells)
Type: biochemical
Conditions: hydrochloride salts tested; averages of a number of experiments; membrane prepared from cultured H3 cells; read-out: functional pKi (fpKi), histamine H3 functional antagonist assay (converted)
Text: A membrane preparation containing histamine H3 receptors may be prepared in accordance with the following procedures:
DNA encoding the human histamine H3 gene (Huvar, A. et al. (1999) Mol. Pharmacol. 55(6), 1101-1107) was cloned into a holding vector, pcDNA3.1 TOPO (InVitrogen) and its cDNA was isolated from this vector by restriction digestion of plasmid DNA with the enzymes BamH1 and Not-1 and ligated into the inducible expression vector pGene (InVitrogen) digested with the same enzymes. The GeneSwitch™ system (a system where in transgene expression is switched off in the absence of an inducer and switched on in the presence of an inducer) was performed as described in U.S. Pat. Nos. 5,364,791; 5,874,534; and 5,935,934. Ligated DNA was transformed into competent DH5α E. coli host bacterial cells and plated onto Luria Broth (LB) agar containing Zeocin™ (an antibiotic which allows the selection of cells expressing the sh ble gene which is present on pGene and pSwitch) at 50 μg ml^−1. Colonies containing the re-ligated plasmid were identified by restriction analysis. DNA for transfection into mammalian cells was prepared from 250 ml cultures of the host bacterium containing the pGeneH3 plasmid and isolated using a DNA preparation kit (Qiagen Midi-Prep) as per manufacturers guidelines (Qiagen).
CHO K1 cells previously transfected with the pSwitch regulatory plasmid (InVitrogen) were seeded at 2×10e6 cells per T75 flask in Complete Medium, containing Hams F12 (GIBCOBRL, Life Technologies) medium supplemented with 10% v/v dialysed foetal bovine serum, L-glutamine, and hygromycin (100 μg ml^−1), 24 hours prior to use. Plasmid DNA was transfected into the cells using Lipofectamine plus according to the manufacturers guidelines (InVitrogen). 48 hours post transfection cells were placed into complete medium supplemented with 500 μg ml^−1 Zeocin™.
10-14 days post selection 10 nM Mifepristone (InVitrogen), was added to the culture medium to induce the expression of the receptor. 18 hours post induction cells were detached from the flask using ethylenediamine tetra-acetic acid (EDTA; 1:5000; InVitrogen), following several washes with phosphate buffered saline pH 7.4 and resuspended in Sorting Medium containing Minimum Essential Medium (MEM), without phenol red, and supplemented with Earles salts and 3% Foetal Clone II (Hyclone). Approximately 1×10e7 cells were examined for receptor expression by staining with a rabbit polyclonal antibody, 4a, raised against the N-terminal domain of the histamine H3 receptor, incubated on ice for 60 minutes, followed by two washes in sorting medium. Receptor bound antibody was detected by incubation of the cells for 60 minutes on ice with a goat anti rabbit antibody, conjugated with Alexa 488 fluorescence marker (Molecular Probes). Following two further washes with Sorting Medium, cells were filtered through a 50 μm Filcon™ (BD Biosciences) and then analysed on a FACS Vantage SE Flow Cytometer fitted with an Automatic Cell Deposition Unit. Control cells were non-induced cells treated in a similar manner. Positively stained cells were sorted as single cells into 96-well plates, containing Complete Medium containing 500 μg ml^−1 Zeocin™ and allowed to expand before reanalysis for receptor expression via antibody and ligand binding studies. One clone, 3H3, was selected for membrane preparation.
All steps of the protocol are carried out at 4° C. and with pre-cooled reagents. […]

T1 sequence (Q9Y5N1 whole entry): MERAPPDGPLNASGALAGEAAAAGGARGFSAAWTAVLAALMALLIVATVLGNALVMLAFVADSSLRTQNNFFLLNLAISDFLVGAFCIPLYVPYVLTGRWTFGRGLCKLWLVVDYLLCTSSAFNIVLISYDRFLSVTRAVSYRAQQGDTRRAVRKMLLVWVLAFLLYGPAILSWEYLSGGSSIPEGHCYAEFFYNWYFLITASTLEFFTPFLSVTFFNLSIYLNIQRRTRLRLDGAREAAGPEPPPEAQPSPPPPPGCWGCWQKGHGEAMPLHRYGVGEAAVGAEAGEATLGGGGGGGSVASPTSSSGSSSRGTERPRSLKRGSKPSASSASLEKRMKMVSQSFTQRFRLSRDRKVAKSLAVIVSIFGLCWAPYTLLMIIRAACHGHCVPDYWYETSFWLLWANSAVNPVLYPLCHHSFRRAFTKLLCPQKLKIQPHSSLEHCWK

SMILES	Ki [nM]
O=C1CCCN1c1ccc(Oc2ccc3c(c2)CC(N2CCCC2)C3)nc1 (racemic) [Example 3, 1-(6-{[2-(1-Pyrrolidinyl)-2,3-dihydro-1H-inden-5-yl]oxy}-3-pyridinyl)-2-pyrrolidinone]	< 1
CNC(=O)c1ccc(Oc2ccc3c(c2)CC(N2CCCC2)C3)nc1 (single isomer, unassigned; (-)) [Example 22, (−)-Enantiomer N-methyl-6-{[2-(1-pyrrolidinyl)-2,3-dihydro-1H-inden-5-yl]oxy}-3-pyridinecarboxamide]	< 1
O=C1CCCN1c1ccc(Oc2ccc3c(c2)CC(N2CCCC2)C3)nc1 (single isomer, unassigned; enantiomer 1) [Example 4, (−)-Enantiomer 1-(6-{[2-(1-Pyrrolidinyl)-2,3-dihydro-1H-inden-5-yl]oxy}-3-pyridinyl)-2-pyrrolidinone]	< 1
O=C(c1ccc(Oc2ccc3c(c2)CC(N2CCCC2)C3)nc1)N1CCCC1 (centres unmarked) [Example 12, 5-(1-Pyrrolidinylcarbonyl)-2-{[2-(1-pyrrolidinyl)-2,3-dihydro-1H-inden-5-yl]oxy}pyridine]	< 1
C[C@H]1CCCN1C1Cc2ccc(Oc3ccc(N4CCCC4=O)cn3)cc2C1 (stereo partly drawn) [Example 20, 1-[6-({2-[(2S)-2-Methyl-1-pyrrolidinyl]-2,3-dihydro-1H-inden-5-yl}oxy)-3-pyridinyl]-2-pyrrolidinone]	< 1
